Test results published in ChEMBL document CHEMBL3046319, “PCR-RFLP detection of the E198A mutation conferring resistance to benzimidazoles in field isolates of Monilinia laxa from Greece” (Crop Prot, 2012).
Converted amounts (≈) assume the structure as drawn. The source made the active and inactive calls. The calls are words filed in the database; no cut-off is given here.

Tests used:
[1] = tested on: Monilinia laxa; experiment: Fungicidal activity against Monilinia laxa isolate MLP2 assessed as mycelial growth at 1 ug/ml at 25 degC after 4 days; format: functional
[2] = tested on: Monilinia laxa; experiment: Fungicidal activity against Monilinia laxa isolate MLP4 assessed as virulence in prune fruits assessed as virulence treated 10 min prior to mycelial inoculation at 24 degC after 10 days relative to isolate MLX1by pathogenicity bioassay; format: functional
[3] = tested on: Monilinia laxa; experiment: Fungicidal activity against Monilinia laxa isolate KX5 assessed as reduction in mycelial growth rate at 25 degC after 4 days; format: functional, organism-based; settings: isolate KX5, 96 h
[4] = tested on: Monilinia laxa; experiment: Fungicidal activity against Monilinia laxa isolate KX4 assessed as reduction in mycelial growth rate at 1 to 10 ug/ml at 25 to 28 degC; format: functional, organism-based
[5] = tested on: Monilinia laxa; experiment: Fungicidal activity against Monilinia laxa isolate MLK12 assessed as reduction in mycelial growth rate at 1 to 10 ug/ml at 31 degC after 5 days; format: functional, organism-based
[6] = tested on: Monilinia laxa; experiment: Fungicidal activity against Monilinia laxa isolate MLKS1 assessed as reduction in mycelial growth rate at 1 to 10 ug/ml at 31 degC after 5 days; format: functional, organism-based
[7] = tested on: Monilinia laxa; experiment: Fungicidal activity against Monilinia laxa isolate MLP2 assessed as virulence in prune fruits assessed as virulence treated 10 min prior to mycelial inoculation at 24 degC after 10 days relative to isolate MLX1by pathogenicity bioassay; format: functional
[8] = tested on: Monilinia laxa; experiment: Fungicidal activity against Monilinia laxa isolate MLP2 assessed as reduction in mycelial growth rate at 1 to 10 ug/ml at 31 degC after 5 days; format: functional, organism-based
[9] = tested on: Monilinia laxa; experiment: Fungicidal activity against Monilinia laxa isolate MLBO2 assessed as reduction in mycelial growth rate at 25 degC after 4 days; format: functional, organism-based; settings: isolate MLBO2, 96 h
[10] = tested on: Monilinia laxa; experiment: Fungicidal activity against Monilinia laxa isolate MLX3 assessed as reduction in mycelial growth rate at 1 to 10 ug/ml at 28 degC after 8 days; format: functional, organism-based
[11] = tested on: Monilinia laxa; experiment: Fungicidal activity against Monilinia laxa isolate MLK1 assessed as mean number of conidia produced in the colony at 25 degC after 12 days by haemocytometer; format: functional
[12] = tested on: Monilinia laxa; experiment: Fungicidal activity against Monilinia laxa isolate KX2 assessed as reduction in mycelial growth rate at 25 degC after 4 days; format: functional, organism-based; settings: isolate KX2, 96 h
[13] = tested on: Monilinia laxa; experiment: Fungicidal activity against Monilinia laxa isolate MLNS1 assessed as reduction in mycelial growth rate at 25 degC after 4 days; format: functional, organism-based; settings: isolate MLNS1, 96 h
[14] = tested on: Monilinia laxa; experiment: Fungicidal activity against Monilinia laxa isolate MLAl8 assessed as reduction in mycelial growth rate at 1 to 10 ug/ml at 25 to 28 degC; format: functional, organism-based
[15] = tested on: Monilinia laxa; experiment: Fungicidal activity against Monilinia laxa isolate MLK8 assessed as reduction in mycelial growth rate at 25 degC after 4 days; format: functional, organism-based; settings: isolate MLK8, 96 h
[16] = tested on: Monilinia laxa; experiment: Fungicidal activity against Monilinia laxa isolate MLBO5 assessed as mycelial growth at 1 ug/ml at 25 degC after 4 days; format: functional
[17] = tested on: Monilinia laxa; experiment: Fungicidal activity against Monilinia laxa isolate MLBO4 assessed as reduction in mycelial growth rate at 1 to 10 ug/ml at 31 degC after 5 days; format: functional, organism-based
[18] = tested on: Monilinia laxa; experiment: Fungicidal activity against Monilinia laxa isolate MLBO3 assessed as reduction in mycelial growth rate at 1 to 10 ug/ml at 31 degC after 5 days; format: functional, organism-based
[19] = tested on: Monilinia laxa; experiment: Fungicidal activity against Monilinia laxa isolate MLK4A assessed as reduction in mycelial growth rate at 1 to 10 ug/ml at 31 degC after 5 days; format: functional, organism-based
[20] = tested on: Monilinia laxa; experiment: Fungicidal activity against Monilinia laxa isolate MLG3 assessed as reduction in mycelial growth rate at 1 to 10 ug/ml at 31 degC after 5 days; format: functional, organism-based
[21] = tested on: Monilinia laxa; experiment: Fungicidal activity against Monilinia laxa isolate MLBO2 assessed as reduction in mycelial growth rate at 1 to 10 ug/ml at 31 degC after 5 days; format: functional, organism-based

Structure (SMILES): COC(=O)Nc1nc2ccccc2[nH]1 [CARBENDAZIM]
- Activity [1]: 0%
- Activity [2]: 100%
- EC50 [3]: > 50 µg/mL
- inhibition [4]: inactive
- inhibition [5]: Active
- inhibition [6]: Active
- Activity [7]: 87.37%
- inhibition [8]: Active
- EC50 [9]: 0.18 µg/mL (≈ 0.941 µM)
- inhibition [10]: inactive
- Activity [11]: 6.55 /cm2
- EC50 [12]: 0.08 µg/mL (≈ 0.418 µM)
- EC50 [13]: > 50 µg/mL
- inhibition [14]: inactive
- EC50 [15]: 0.09 µg/mL (≈ 0.471 µM)
- Activity [16]: 0%
- inhibition [17]: Active
- inhibition [18]: Active
- inhibition [19]: Active
- inhibition [20]: Active
- inhibition [21]: Active
